Measurements as given in patent US9006394B2, “Peptide-presenting surfaces for long-term culture of pluripotent cells” (Wisconsin Alumni Research Foundation, priority 2008, dated 2015).
Ends that are not written are not given here.

Tests used:
pluripotent stem cells = test: Number of cell divisions by fluorescent cell staining; assay type: cell-based, human; conditions: listed as GKKQRFRHRNKG
hESCs = test: Long-term (3 months) culture on defined surfaces, markers of pluripotency; assay type: cell-based, human; conditions: 3 months of continuous passaging
Description: Preferably, one spots ATs onto an inert background to form self-assembling monolayers (SAMs). See, e.g., Derda et al., supra; Derda R, et al., “Solid-phase synthesis of alkanethiols for the preparation of self-assembled monolayers,” Langmuir 23:11164-11167 (2007); and Houseman B & Mrksich M, “Efficient solid-phase synthesis of peptide-substituted alkanethiols for the preparation of substrates that support the adhesion of cells,” J. Org. Chem. 63:7552-7555 (1998), each of which is incorporated herein by reference as if set forth in its entirety. For example, a background can be formed of perfluoro-AT, which can be both cytophobic (i.e., repel cells) and solvophobic (i.e., repel solvents). First, a gold-coated surface can be coated with a perfluoro-AT monolayer, either leaving areas (i.e., holes) in the monolayer for the elements of an array or creating areas in the monolayer for the elements of the array in a subsequent step. Then, ATs coupled to a peptide, such as an GBP as described herein, can be attached to the substrate in the holes to complete the monolayer and to present ligands for pluripotent cell attachment to the surface. Surface density of the GBPs can be controlled using mixed SAMs of peptide-ATs and non-adhesive glucamine-ATs. […]
Flow cytometry data was obtained using a FACSCalibur™ (BD Biosciences) and analyzed using FlowJo Software (Tree Star, Inc.; Ashland, Oreg.). […]

Sequence: GKKQRFRHRNRKG (not fully specified (C-terminus); listed as Homo sapiens)
- number of cell divisions (pluripotent stem cells): superior to polylysine-coated surfaces
- markers of pluripotency after 3 months of culture (hESCs): maintained high levels of markers of pluripotency
- markers of pluripotency after 3 months of culture (hESCs; listed as SEQ ID NO:1): maintained at high levels
- karyotype by standard G banding (H9 hESCs): karyotypically normal
